According to US11986512B2, “Compositions and methods for cancer therapy” (Thetis Pharmaceuticals LLC, priority 2021, dated 2024):

Key:
Type in all cases: in vivo, C57BL/6J male mice
[1] = tested on: B16F10 cells; assay: B16F10 model of melanoma, with anti-PD1 and anti-CTLA4
Procedure: (§1) A representative compound of Formula IV, RvE1 magnesium dilysinate, was tested for efficacy in several mouse models of cancer, including the Panc2-H7 model of pancreatic cancer, the Lewis lung carcinoma (LLC) model, the MC38 model of colorectal cancer, and the B16F10 model of melanoma. These models are well established, highly tumorigenic syngeneic models in which murine cancer cell lines are injected subcutaneously (SC) into the dorsum of C57BL/6J mice. If left untreated, these tumors grow rapidly and lead to death or euthanasia, per protocol. As detailed below in Examples 1-9 and the accompanying figures, bis RvE1 Mg-di-lysinate (Compound 1) was unexpectedly effective as an anti-cancer agent in each of these model systems when administered in a less than daily (LTD) dosing regimen. […] Without being bound by any theory, the surprising efficacy of LTD dosing of resolvins in the cancer model systems described here may be the result of durable effects on the tumor microenvironment including changes in immune cell phenotype, vascularization, stromal phenotype, and antigen presentation, as well as durable effects on the T-cell compartment such as T-cell priming and increased tumor-infiltrating lymphocytes.
Based on the finding of increased efficacy with bis RvE1 Mg-di-lysinate administered in combination with anti-PD1 monotherapy and anti-CTLA4 monotherapy, a study was conducted to investigate the efficacy of less than daily (LTD) bis RvE1 Mg-di-lysinate combined with both anti-PD1 and anti-CTLA4 in the B16F10 model of melanoma. […] See Perez-Ruiz E, et al. Nature. 2019; 569(7756):428-432. Thus, this initial study with ICI dual therapy was designed to investigate whether use of bis RvE1 Mg-di-lysinate with the ICI dual therapy could enhance efficacy, which may offer the opportunity to reduce the dose of the ICI components of the regimen without loss of efficacy. A total of sixty-four (64) C57BL/6J male mice were injected subcutaneously with 1×10e6 living B16F10 cells in the dorsum. When tumors reached a mean tumor volume of approximately 130 mme3, the mice were randomized (n=8 per group) to treatment with vehicle, bis RvE1 Mg-di-lysinate (300 ug/kg, SC, Q6D), anti-PD1 (8 mg/kg, i.p., Q3D) or anti-CTLA-4 (4 mg/kg, Q3D). The double combinations of bis RvE1 Mg-di-lysinate and anti-CTLA-4 or anti-PD1, and anti-PD1 with anti-CTLA-4, as well as the triple combination of bis RvE1 Mg-di-lysinate, anti-CTLA-4 and anti-PD1 were also investigated. All combination arms used the same dosing regimens as the individual monotherapies. The mice were sacrificed on day 12 per protocol when the mean tumor of the vehicle group reached approximately 2,000 mm^3. […] This is clinically relevant for melanoma patients receiving anti-PD1 monotherapy, which is used when the side effects of ICI dual therapy are not tolerated.

[2] = tested on: LLC cells; assay: Lewis lung carcinoma (LLC) model, with and without anti-PD1 or cisplatin; details: P<0.05
Procedure: as §1
To expand our understanding of bis RvE1 Mg-di-lysinate as a cancer therapy that could be used in combination with other cancer therapies including immune checkpoint inhibitors, bis RvE1 Mg-di-lysinate monotherapy and in combination either anti-PD1 or cisplatin was investigated in the LLC model of non-small cell lung cancer, which is a model known to unresponsive to anti-PD1 therapy and moderately responsive to cisplatin. Yu et al., J Exp Clin Cancer Res. 2010; 29(1):46; Lechner et al., J Immunother. 2013; 36(9):477-489. A total of forty (40) C57BL/6J male mice were injected subcutaneously with 1×10e6 living LLC cells. […] In addition, bis RvE1 Mg-di-lysinate was evaluated in combination with anti-PD1 or cisplatin. […]

[3] = tested on: Panc2-H7 cells; assay: Panc2-H7 model of pancreatic cancer, with and without anti-PD1
Procedure: as §1
Over the last two decades, research on checkpoint inhibitors, including anti-PD(L)1 and anti-CTLA4, has focused on T-cells as a major therapeutic target. Waldman et al., Nat Rev Immunol. 2020; 20(11):651-668. In general, the response to treatment with immune checkpoint inhibitors requires the presence of CD4+ and CD8+ T cells in the tumor microenvironment. Li et al., Biochim Biophys Acta Rev Cancer. 2020; 1874(2):188439. […] Chiurchiu et al., Sci. Transl. Med. 2016; 8:353ra111; Mizraji et al., Front Immunol. 2018; 9:785; Oner et al., Front Immunol. 2021; 12:637983. In addition, resolvins can enhance the de novo generation and function of immunosuppressive T regulatory cells, which are associated with cancer progression and resistance to immune checkpoint inhibitors. Alvarez et al., Front Immunol. 2021; 12:664756; Togashi et al., Nat Rev Clin Oncol 2019; 16, 356-371. […]

[4] = triple therapy (bis RvE1 Mg-di-lysinate + anti-CTLA-4 + anti-PD1), p<0.001

CC[C@@H](O)/C=C/C=C\C[C@@H](O)/C=C/C=C/C=C\[C@@H](O)CCCC(=O)O [bis RvE1 Mg-di-lysinate]
inhibition compared to anti-PD1 monotherapy ([1]; double combination of bis RvE1 Mg-di-lysinate 300 ug/kg SC Q6D and anti-PD1 8 mg/kg i.p. Q3D, p<0.05): 54% | efficacy of LTD dosing ([1]; monotherapy, 300 ug/kg, SC, Q6D): effective as monotherapy | tumor growth inhibition compared to anti-CTLA-4 monotherapy [1, 4]: 71% | tumor growth inhibition compared to anti-PD1 monotherapy [1, 4]: 87% | inhibition, tumor volume at day 12 divided by tumor volume at day 0 ([1]; triple therapy: bis RvE1 Mg-di-lysinate 300 ug/kg SC Q6D + anti-CTLA-4 4 mg/kg Q3D + anti-PD1 8 mg/kg i.p. Q3D, p<0.05): 67% | tumor volume (Day 11 vs Day 0) ([2]; bis RvE1 Mg-di-lysinate 30 ug/kg SC QD in combination with anti-PD1 8 mg/kg IP Q3D): reduced tumor volume compared to placebo and cisplatin and anti-PD1 alone | tumor volume (Day 11 vs Day 0) ([2]; bis RvE1 Mg-di-lysinate 30 ug/kg SC QD in combination with cisplatin 5 mg/kg i.p Q5D): reduced tumor volume compared to placebo and cisplatin and anti-PD1 alone | tumor growth ([3]; double combination: bis RvE1 Mg-di-lysinate 30 ug/kg SC plus anti-PD1 8 mg/kg IP Q3D, p<0.001 vs placebo and monotherapy groups): significantly inhibited tumor growth relative to control | anti-cancer effect (tumor volume, Day 15 vs Day 0) ([3]; monotherapy, 30 ug/kg, subcutaneous injection): did not have a significant anti-cancer effect | tumor growth ([3]; triple combination of bis RvE1 Mg-di-lysinate, anti-PD1 and gemcitabine): significantly inhibited tumor growth relative to control
